Counter-ions that a name gives are not always drawn.
Assays:
PI 3-kinase alpha = PI 3-kinase alpha (Homo sapiens (Human), UniProt P42336); conditions: read-out: Assay A PI3Kα IC50
Vps34 = Vps34 (Homo sapiens (Human), UniProt Q8NEB9); conditions: read-out: Assay C VPS34 IC50
PI 4-kinase beta = PI 4-kinase beta (Homo sapiens (Human), UniProt Q9UBF8); conditions: read-out: Assay D PI4Kβ IC50
PI 3-kinase beta = PI 3-kinase beta (Homo sapiens (Human), UniProt P42338); conditions: read-out: Assay B PI3Kβ IC50
PI 3-kinase beta, sequence (P42338 whole entry, looked up): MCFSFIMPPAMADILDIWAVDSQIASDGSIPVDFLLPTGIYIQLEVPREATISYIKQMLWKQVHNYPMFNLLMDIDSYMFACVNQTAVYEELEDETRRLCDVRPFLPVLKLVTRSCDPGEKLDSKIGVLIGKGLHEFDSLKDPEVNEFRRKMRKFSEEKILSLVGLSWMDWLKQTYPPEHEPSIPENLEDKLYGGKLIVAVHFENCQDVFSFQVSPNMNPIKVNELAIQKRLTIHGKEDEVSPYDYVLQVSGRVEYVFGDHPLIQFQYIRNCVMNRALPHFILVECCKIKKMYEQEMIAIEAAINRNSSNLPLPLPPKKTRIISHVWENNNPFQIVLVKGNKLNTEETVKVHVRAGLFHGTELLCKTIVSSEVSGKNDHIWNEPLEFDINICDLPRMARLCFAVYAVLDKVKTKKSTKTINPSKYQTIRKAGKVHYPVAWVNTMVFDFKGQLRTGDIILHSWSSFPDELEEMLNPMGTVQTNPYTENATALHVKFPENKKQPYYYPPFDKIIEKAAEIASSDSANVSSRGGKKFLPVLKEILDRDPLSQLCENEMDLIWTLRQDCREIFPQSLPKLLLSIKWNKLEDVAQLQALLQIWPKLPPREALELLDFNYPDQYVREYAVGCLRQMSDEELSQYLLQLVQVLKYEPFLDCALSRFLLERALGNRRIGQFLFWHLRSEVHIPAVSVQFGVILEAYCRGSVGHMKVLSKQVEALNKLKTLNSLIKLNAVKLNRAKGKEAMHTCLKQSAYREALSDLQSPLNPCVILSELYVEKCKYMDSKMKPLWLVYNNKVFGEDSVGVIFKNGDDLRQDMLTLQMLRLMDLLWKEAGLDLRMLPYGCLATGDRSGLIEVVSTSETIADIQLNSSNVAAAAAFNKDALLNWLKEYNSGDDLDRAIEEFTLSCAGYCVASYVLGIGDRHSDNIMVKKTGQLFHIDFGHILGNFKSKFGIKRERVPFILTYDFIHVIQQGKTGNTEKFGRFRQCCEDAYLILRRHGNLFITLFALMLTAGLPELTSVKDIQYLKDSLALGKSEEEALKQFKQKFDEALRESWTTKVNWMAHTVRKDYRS
PI 3-kinase beta, sequence (P27986 whole entry partner, looked up): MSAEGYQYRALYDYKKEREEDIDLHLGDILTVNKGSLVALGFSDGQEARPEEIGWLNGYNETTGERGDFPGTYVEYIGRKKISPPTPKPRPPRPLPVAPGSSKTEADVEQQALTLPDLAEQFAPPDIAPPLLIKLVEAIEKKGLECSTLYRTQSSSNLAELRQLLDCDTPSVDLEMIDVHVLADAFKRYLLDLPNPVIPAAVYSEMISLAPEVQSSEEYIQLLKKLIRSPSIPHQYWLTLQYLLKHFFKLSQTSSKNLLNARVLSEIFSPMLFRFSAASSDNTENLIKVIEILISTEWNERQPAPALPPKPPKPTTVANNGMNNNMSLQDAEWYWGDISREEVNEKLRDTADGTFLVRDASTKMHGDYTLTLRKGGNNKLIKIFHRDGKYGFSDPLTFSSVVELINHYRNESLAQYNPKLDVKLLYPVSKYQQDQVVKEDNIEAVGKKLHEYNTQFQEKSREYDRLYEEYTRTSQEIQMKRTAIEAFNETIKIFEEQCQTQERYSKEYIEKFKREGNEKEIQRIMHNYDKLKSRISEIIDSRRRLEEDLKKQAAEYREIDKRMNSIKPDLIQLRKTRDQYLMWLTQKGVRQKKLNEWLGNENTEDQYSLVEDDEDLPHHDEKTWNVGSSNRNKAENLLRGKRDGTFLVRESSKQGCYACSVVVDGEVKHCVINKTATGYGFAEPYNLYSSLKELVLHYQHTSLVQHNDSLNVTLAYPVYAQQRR

mTOR = mTOR (Homo sapiens (Human), UniProt P42345); conditions: read-out: Assay G mTOR IC50

PI 4-kinase beta, sequence (Q9UBF8 whole entry): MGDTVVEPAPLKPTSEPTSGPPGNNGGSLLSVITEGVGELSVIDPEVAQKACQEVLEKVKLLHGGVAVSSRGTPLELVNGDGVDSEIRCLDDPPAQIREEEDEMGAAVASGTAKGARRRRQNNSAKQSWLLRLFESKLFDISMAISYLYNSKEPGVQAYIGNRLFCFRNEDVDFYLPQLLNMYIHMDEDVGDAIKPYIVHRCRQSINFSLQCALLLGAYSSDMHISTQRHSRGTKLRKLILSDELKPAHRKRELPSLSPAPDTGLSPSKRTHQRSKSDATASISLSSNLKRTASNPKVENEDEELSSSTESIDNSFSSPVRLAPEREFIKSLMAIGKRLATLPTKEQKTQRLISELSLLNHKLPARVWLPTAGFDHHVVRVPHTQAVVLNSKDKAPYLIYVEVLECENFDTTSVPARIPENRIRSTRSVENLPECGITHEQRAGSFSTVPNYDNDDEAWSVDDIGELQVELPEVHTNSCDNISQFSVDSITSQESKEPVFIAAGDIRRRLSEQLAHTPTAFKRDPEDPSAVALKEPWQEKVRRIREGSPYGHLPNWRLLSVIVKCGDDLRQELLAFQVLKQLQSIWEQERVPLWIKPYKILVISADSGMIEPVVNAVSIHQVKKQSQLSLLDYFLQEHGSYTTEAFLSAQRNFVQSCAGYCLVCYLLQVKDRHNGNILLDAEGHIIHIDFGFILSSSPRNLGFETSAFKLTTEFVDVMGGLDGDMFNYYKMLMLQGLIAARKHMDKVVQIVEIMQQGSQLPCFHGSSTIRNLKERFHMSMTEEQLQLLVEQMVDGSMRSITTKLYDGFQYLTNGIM
PI 3-kinase alpha, sequence (P42336 whole entry, looked up): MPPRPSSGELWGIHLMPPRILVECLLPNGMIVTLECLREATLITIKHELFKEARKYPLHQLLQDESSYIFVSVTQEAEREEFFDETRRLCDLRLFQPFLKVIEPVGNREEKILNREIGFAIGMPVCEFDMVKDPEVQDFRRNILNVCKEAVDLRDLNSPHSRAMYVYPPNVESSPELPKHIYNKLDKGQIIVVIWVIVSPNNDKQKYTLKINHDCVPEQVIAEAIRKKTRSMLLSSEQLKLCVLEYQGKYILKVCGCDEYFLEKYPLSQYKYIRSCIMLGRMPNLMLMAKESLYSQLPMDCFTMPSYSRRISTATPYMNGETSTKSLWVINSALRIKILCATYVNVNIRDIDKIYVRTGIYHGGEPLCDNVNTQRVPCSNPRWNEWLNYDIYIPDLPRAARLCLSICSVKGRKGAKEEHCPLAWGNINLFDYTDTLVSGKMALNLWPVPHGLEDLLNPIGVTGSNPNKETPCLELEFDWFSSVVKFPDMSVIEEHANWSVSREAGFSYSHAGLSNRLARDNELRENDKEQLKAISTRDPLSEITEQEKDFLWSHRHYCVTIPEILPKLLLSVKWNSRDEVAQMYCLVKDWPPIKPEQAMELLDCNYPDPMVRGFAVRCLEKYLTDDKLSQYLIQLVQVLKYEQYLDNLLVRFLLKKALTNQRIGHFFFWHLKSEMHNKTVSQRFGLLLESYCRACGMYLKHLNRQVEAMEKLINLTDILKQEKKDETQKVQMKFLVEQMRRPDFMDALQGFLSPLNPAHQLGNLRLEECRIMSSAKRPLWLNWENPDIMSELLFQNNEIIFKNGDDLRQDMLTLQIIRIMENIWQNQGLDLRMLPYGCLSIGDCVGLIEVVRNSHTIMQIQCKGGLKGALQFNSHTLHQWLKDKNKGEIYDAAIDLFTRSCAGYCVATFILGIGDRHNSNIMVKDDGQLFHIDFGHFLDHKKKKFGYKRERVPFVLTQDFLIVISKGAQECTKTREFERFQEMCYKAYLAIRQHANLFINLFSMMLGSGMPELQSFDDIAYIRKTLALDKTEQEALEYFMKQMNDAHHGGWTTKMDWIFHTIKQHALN
PI 3-kinase alpha, sequence (P27986 whole entry partner, looked up): as the sequence (P27986 whole entry partner, looked up) above
Vps34, sequence (Q8NEB9 whole entry): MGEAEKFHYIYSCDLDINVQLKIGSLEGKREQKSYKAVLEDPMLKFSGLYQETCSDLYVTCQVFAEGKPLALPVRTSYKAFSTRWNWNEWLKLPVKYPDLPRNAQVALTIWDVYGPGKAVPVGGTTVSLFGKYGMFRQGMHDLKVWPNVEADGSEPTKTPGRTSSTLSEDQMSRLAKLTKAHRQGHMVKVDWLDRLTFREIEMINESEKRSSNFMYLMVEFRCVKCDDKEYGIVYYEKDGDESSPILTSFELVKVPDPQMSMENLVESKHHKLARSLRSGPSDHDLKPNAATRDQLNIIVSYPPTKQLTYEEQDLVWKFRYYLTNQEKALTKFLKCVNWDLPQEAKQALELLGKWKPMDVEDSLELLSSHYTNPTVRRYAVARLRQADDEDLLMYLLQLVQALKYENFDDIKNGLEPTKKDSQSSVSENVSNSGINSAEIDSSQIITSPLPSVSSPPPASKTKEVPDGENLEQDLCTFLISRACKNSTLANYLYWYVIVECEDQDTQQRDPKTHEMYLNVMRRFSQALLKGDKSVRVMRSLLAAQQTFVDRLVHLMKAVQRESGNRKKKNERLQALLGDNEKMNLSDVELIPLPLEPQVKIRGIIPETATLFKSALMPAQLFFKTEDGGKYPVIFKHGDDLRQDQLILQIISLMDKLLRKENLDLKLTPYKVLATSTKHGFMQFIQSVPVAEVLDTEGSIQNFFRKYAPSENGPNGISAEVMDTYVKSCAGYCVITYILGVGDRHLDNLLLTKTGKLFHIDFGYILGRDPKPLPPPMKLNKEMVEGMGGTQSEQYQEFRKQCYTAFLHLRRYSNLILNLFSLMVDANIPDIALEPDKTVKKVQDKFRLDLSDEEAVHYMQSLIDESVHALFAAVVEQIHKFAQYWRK

Compound | IC50 (PI 3-kinase alpha) [nM] | IC50 (Vps34) [µM] | IC50 (PI 4-kinase beta) [nM] | IC50 (PI 3-kinase beta) [µM] | IC50 (mTOR) [µM]
Cc1cc(-c2cc(-c3cc(S(=O)(=O)N[C@H]4CC[C@H](O)CC4)ccc3C)cnc2N)on1 [Example 5.4, trans 3-(6-Amino-5-(3-methylisoxazol-5-yl)pyridin-3-yl)-N-(-4-hydroxycyclohexyl)-4-methylbenzenesulfon-amide hydrochloride] | 250 | > 10 |  |  | 
Cc1cc(-c2cc(-c3cc(S(=O)(=O)N4CC[C@H](N(C)C)C4)ccc3C)cnc2N)on1 [Example 19.22, (S)-5-(5-((3-(dimethylamino)pyrrolidin-1-yl)sulfonyl)-2-methylphenyl)-3-(3-methylisoxazol-5-yl)pyridin-2-amine acetic acid salt] | 2000 | > 10 | 8600 | 5.8 | 
Cc1ncc(-c2cc(-c3cc(S(=O)(=O)NC4CC5(CC(O)C5)C4)ccc3C)cnc2N)s1 (stereo not drawn) [Example 28, 3-(6-Amino-5-(2-methylthiazol-5-yl)pyridin-3-yl)-N-(6-hydroxyspiro[3.3]heptan-2-yl)-4-methylbenzenesulfonamide] | 50 | 2 | 680 | 0.45 | 
Cc1cc(-c2cc(-c3cc(S(=O)(=O)N4CC(C)(O)C4)ccc3C)cnc2N)on1 [Example 37.28, 1-((3-(6-Amino-5-(3-methylisoxazol-5-yl)pyridin-3-yl)-4-methylphenyl)sulfonyl)-3-methylazetidin-3-ol] |  | > 10 | 2800 | 3.8 | 
Cc1cc(-c2cc(-c3cc(S(=O)(=O)NCC(F)(F)F)ccc3C)cnc2N)on1 [Example 39, 3-(6-Amino-5-(3-methylisoxazol-5-yl)pyridin-3-yl)-4-methyl-N-(2,2,2-trifluoroethyl)benzenesulfonamide] | 450 | > 10 | 1300 | 3.7 | 
Cc1cc(-c2cc(-c3cc(S(=O)(=O)NC[C@@H]4CCCO4)ccc3C)cnc2N)on1 [Example 40, (S)-3-(6-Amino-5-(3-methylisoxazol-5-yl)pyridin-3-yl)-4-methyl-N-((tetrahydrofuran-2-yl)methyl)benzenesulfonamide] |  | > 10 | 3200 | 4 | 
Cc1noc(-c2cc(-c3cc(S(=O)(=O)NOC(C)C)ccc3C)cnc2N)n1 [Example 45, 3-(6-Amino-5-(3-methyl-1,2,4-oxadiazol-5-yl)pyridin-3-yl)-N-isopropoxy-4-methylbenzenesulfonamide] |  | > 10 | 7400 |  | 9.1
Cc1noc(-c2cc(-c3cc(S(=O)(=O)NOC(C)(C)C)ccc3C)cnc2N)n1 [Example 47, 3-(6-Amino-5-(3-methyl-1,2,4-oxadiazol-5-yl)pyridin-3-yl)-N-(tert-butoxy)-4-methylbenzenesulfonamide] |  | > 10 | 4400 |  | 4
Cc1noc(-c2cc(-c3cc(S(=O)(=O)NCCC(F)(F)F)ccc3C)cnc2N)n1 [Example 48, 3-(6-Amino-5-(3-methyl-1,2,4-oxadiazol-5-yl)pyridin-3-yl)-4-methyl-N-(3,3,3-trifluoropropyl)benzenesulfonamide] |  | > 10 | 6000 |  | > 10
Cc1noc(-c2cc(-c3cc(S(=O)(=O)NC4CCOCC4)ccc3C)cnc2N)n1 [Example 49, 3-(6-Amino-5-(3-methyl-1,2,4-oxadiazol-5-yl)pyridin-3-yl)-4-methyl-N-(tetrahydro-2H-pyran-4-yl)benzenesulfonamide] |  | > 10 | 6800 |  | 8.1
Cc1cnn(-c2cc(-c3cc(S(=O)(=O)NCC(C)(C)O)ccc3C)cnc2N)c1 [Example 60, 3-(6-Amino-5-(4-methyl-1H-pyrazol-1-yl)pyridin-3-yl)-N-(2-hydroxy-2-methylpropyl)-4-methylbenzenesulfonamide] |  | > 10 |  | > 10 | > 10
Cc1ccc(S(=O)(=O)N[C@H]2CC[C@H](O)CC2)cc1-c1cnc(N)c(-c2nc(C(F)F)no2)c1 [Example 70, 3-(6-Amino-5-(3-(difluoromethyl)-1,2,4-oxadiazol-5-yl)pyridin-3-yl)-N-((1r,4r)-4-hydroxycyclohexyl)-4-methylbenzenesulfonamide hydrochloride] |  | > 10 | 8200 |  | > 10
Cc1cc(-c2cc(-c3cc(S(=O)(=O)N[C@H]4CC[C@H](CO)CC4)ccc3C)cnc2N)ccn1 [Example 77, trans-3-(2-Amino-2′-methyl-[3,4′-bipyridin]-5-yl)-N-(−4-(hydroxymethyl)cyclohexyl)-4-methylbenzenesulfonamide hydrochloride] |  | > 10 | 2100 |  | > 10
Cc1ccc(S(=O)(=O)NCC(C)(C)O)cc1-c1cnc(N)c(-c2nc(C3CC3)no2)c1 [Example 80, 3-(6-Amino-5-(3-cyclopropyl-1,2,4-oxadiazol-5-yl)pyridin-3-yl)-N-(2-hydroxy-2-methylpropyl)-4-methylbenzenesulfonamide hydrochloride] |  | > 10 | 3550 |  | > 10
Cc1ncc(-c2cc(-c3cc(S(=O)(=O)NCC4COC4)ccc3C)cnc2N)s1 [Example 83.2, 3-(6-Amino-5-(2-methylthiazol-5-yl)pyridin-3-yl)-4-methyl-N-(oxetan-3-ylmethyl)benzenesulfonamide] | 400 | 6.2 | 2400 | 6.2 | 
Cc1ncc(-c2cc(-c3cc(S(=O)(=O)NCC(C)(C)CO)ccc3C)cnc2N)s1 [Example 83.4, 3-(6-Amino-5-(2-methylthiazol-5-yl)pyridin-3-yl)-N-(3-hydroxy-2,2-dimethylpropyl)-4-methylbenzenesulfonamide] | 350 | 2.2 | 1300 | 2.1 | 
Cc1ncc(-c2cc(-c3cc(S(=O)(=O)NCCO)ccc3C)cnc2N)s1 [Example 83.5, 3-(6-Amino-5-(2-methylthiazol-5-yl)pyridin-3-yl)-N-(2-hydroxyethyl)-4-methylbenzenesulfonamide] | 430 | 5.2 | 2800 | 3.4 | 
Cc1cc(-c2cc(-c3cc(S(=O)(=O)NO[C@H]4C[C@H](O)C4)ccc3C)cnc2N)on1 [Example 95, trans-3-(6-amino-5-(3-methylisoxazol-5-yl)pyridin-3-yl)-N-((1r,3r)-3-hydroxycyclobutoxy)-4-methylbenzenesulfonamide] |  | > 10 | 860 |  | > 10
Cc1ncc(-c2cc(-c3cc(S(=O)(=O)N[C@H]4CC[C@H](O)CC4)ccc3C)cnc2N)s1 [Example 97, 3-(6-amino-5-(2-methylthiazol-5-yl)pyridin-3-yl)-N-((1r,4r)-4-hydroxycyclohexyl)-4-methylbenzenesulfonamide] |  | 3.8 | 1340 |  | 6.5
Cc1ncc(-c2cc(-c3cc(S(=O)(=O)NCC4CCCOC4)ccc3C)cnc2N)o1 (stereo not drawn) [Example 104.8, 3-(6-amino-5-(2-methyloxazol-5-yl)pyridin-3-yl)-4-methyl-N-((tetrahydro-2H-pyran-3-yl)methyl)benzenesulfon-amide] |  | 4.8 | 2000 | 0.8 | 
Cc1ccc(S(=O)(=O)NCCC(C)(C)O)cc1-c1cnc(N)c(-c2cnn(C)n2)c1 [Example 106, 3-(6-amino-5-(2-methyl-2H-1,2,3-triazol-4-yl)pyridin-3-yl)-N-(3-hydroxy-3-methylbutyl)-4-methylbenzenesulfonamide] |  | > 10 | 6400 |  | 7.6
Cc1ncc(-c2cc(-c3cc(S(=O)(=O)N[C@H]4CCC[C@H](O)C4)ccc3C)cnc2N)o1 [Example 112, 3-(6-amino-5-(2-methyloxazol-5-yl)pyridin-3-yl)-N-((1S,3S)-3-hydroxycyclohexyl)-4-methylbenzenesulfonamide] | 140 | 3.5 | 730 | 0.66 | 
Cc1noc(-c2cc(-c3cc(S(=O)(=O)NCC(C)(C)O)c(C)cc3F)cnc2N)n1 [Example 113, 5-(6-amino-5-(3-methyl-1,2,4-oxadiazol-5-yl)pyridin-3-yl)-4-fluoro-N-(2-hydroxy-2-methylpropyl)-2-methylbenzenesulfonamide] | 1150 | > 10 |  | 8.85 | 
Cc1ncc(-c2cc(-c3cc(S(=O)(=O)NCC4(O)CC4)ccc3C)cnc2N)o1 [Example 114.1, 3-(6-amino-5-(2-methyloxazol-5-yl)pyridin-3-yl)-N-((1-hydroxycyclopropyl)methyl)-4-methylbenzenesulfon-amide] | 250 | 3.4 | 4500 |  | 
Cc1ncc(-c2cc(-c3cc(S(=O)(=O)NC(CO)C(F)(F)F)ccc3C)cnc2N)o1 (stereo not drawn) [Example 114.2, 3-(6-amino-5-(2-methyloxazol-5-yl)pyridin-3-yl)-4-methyl-N-(1,1,1-trifluoro-3-hydroxypropan-2-yl)benzenesulfonamide] | 410 | 4.4 | 2300 | 2.8 | 
Cc1ncc(-c2cc(-c3cc(S(=O)(=O)NCC4(O)CCOCC4)ccc3C)cnc2N)o1 [Example 114.3, 3-(6-amino-5-(2-methyloxazol-5-yl)pyridin-3-yl)-N-((4-hydroxytetrahydro-2H-pyran-4-yl)methyl)-4-methylbenzenesulfon-amide] | 590 | > 10 | 8100 | 8.4 | 
Cc1ncc(-c2cc(-c3cc(S(=O)(=O)NC4CCC(O)(C(F)(F)F)C4)ccc3C)cnc2N)o1 (stereo not drawn) [Example 114.4, 3-(6-amino-5-(2-methyloxazol-5-yl)pyridin-3-yl)-N-(3-hydroxy-3-(trifluoromethyl)cyclo-pentyl)-4-methylbenzenesulfon-amide] | 80 | 1.2 | 630 | 1.2 | 

Source: patent US10112926B2 (priority 2014, dated 2018)
